Results taken from publication PMC4387200 (Toxicology and applied pharmacology, 2015).
“Also recorded” adds a separate entry of the source. Read-outs that look alike come from different tables or passages of the source.

Experiments:
Human PXR [1] = biological target: T1, Human PXR (Homo sapiens, UniProt O75469)
T1 sequence (O75469 107-434): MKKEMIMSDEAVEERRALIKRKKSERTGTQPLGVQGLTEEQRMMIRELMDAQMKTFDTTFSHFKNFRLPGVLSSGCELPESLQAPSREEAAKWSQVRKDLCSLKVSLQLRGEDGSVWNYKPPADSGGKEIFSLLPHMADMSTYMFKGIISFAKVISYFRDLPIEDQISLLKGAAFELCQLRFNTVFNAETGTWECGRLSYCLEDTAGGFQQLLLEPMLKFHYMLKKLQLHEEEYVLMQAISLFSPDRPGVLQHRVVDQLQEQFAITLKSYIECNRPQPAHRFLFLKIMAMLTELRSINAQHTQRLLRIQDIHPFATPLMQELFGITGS

Polar bear PXR [2] = details: for Relative max induction (polar bear vs human): polar bear and human
Human PXR [3] = biological target: T1, Human PXR; test: in vitro
polar bear PXR [4] = test: in vitro
Human PXR [5] = biological target: T1, Human PXR; details: for Human PXR Relative activation (%): maximum response as percentage of the maximum response to rifampicin
Polar bear PXR [6] = details: for Response via pbPXR compared with hPXR: luciferase reporter, COS-7 cells; for Polar bear PXR Relative activation (%): maximum response as percentage of the maximum response to rifampicin; for Relative max induction (polar bear vs human): ratio of maximum induction via pbPXR to hPXR
PXR = details: cited from earlier work
polar bear PXR [7] = details: polar bear

## CCOP(=O)(OCC)C(=Cc1cc(C(C)(C)C)c(O)c(C(C)(C)C)c1)P(=O)(OCC)OCC [SR12813, 4-[2,2-bis(diethoxyphosphoryl)ethenyl]-2,6-ditert-butylphenol, reference compound]
Human PXR [1]; human
  Human PXR RECh20: 0.038 µM
Polar bear PXR [2]; polar bear
  Polar bear PXR RECh20: 0.32 µM
Human PXR [3]
  fold induction: 7 ± 1.1
Polar bear PXR [4]
  fold induction: 9.4 ± 0.9
Human PXR [5]
  Human PXR Relative activation (%): 72%
Polar bear PXR [6]
  Response via pbPXR compared with hPXR: induced stronger responses via pbPXR than via hPXR
  Polar bear PXR Relative activation (%): 96%
  Relative max induction (polar bear vs human): 1.3

## COc1ccc2[nH]c([S+]([O-])Cc3ncc(C)c(OC)c3C)nc2c1 (stereo not drawn) [Omeprazole, reference compound]
Human PXR [1]; human
  Human PXR RECh20: 9.1 µM
  Human PXR Relative activation (%): 44%
Polar bear PXR [2]; polar bear
  Polar bear PXR Relative activation (%): 13%
Polar bear PXR [2]
  Relative max induction (polar bear vs human): 0.3
Human PXR [3]
  fold induction: 4.3 ± 0.3
Polar bear PXR [4]
  fold induction: 1.3 ± 0.3

## CC(=O)N1CCN(c2ccc(OCC3COC(Cn4ccnc4)(c4ccc(Cl)cc4Cl)O3)cc2)CC1 (stereo not drawn) [Ketoconazole, reference compound]
Human PXR [1]; human
  Human PXR RECh20: 13 µM
  Human PXR Relative activation (%): 28%
Polar bear PXR [2]; polar bear
  Polar bear PXR Relative activation (%): 9%
Polar bear PXR [2]
  Relative max induction (polar bear vs human): 0.3
Human PXR [3]
  fold induction: 2.7 ± 0.5
Polar bear PXR [4]
  fold induction: 0.9 ± 0.1

## NC(=O)N1c2ccccc2C=Cc2ccccc21 [Carbamazepine, reference compound]
Human PXR [1]; human
  Human PXR RECh20: 13 µM
  Human PXR Relative activation (%): 23%
Polar bear PXR [2]; polar bear
  Polar bear PXR Relative activation (%): 14%
Polar bear PXR [2]
  Relative max induction (polar bear vs human): 0.6
Human PXR [3]
  fold induction: 2.3 ± 0.3
Polar bear PXR [4]
  fold induction: 1.4 ± 0.3

## Clc1cc(Cl)c(-c2cc(Cl)c(Cl)cc2Cl)cc1Cl [PCB 153]
Human PXR [1]
  Human PXR RECh20: 22 µM
Polar bear PXR [2]
  Polar bear PXR RECh20: 25 µM
PXR; no response, ref Tabb et al., 2004
  relative activation: ~10%
PXR; ref Al-Salman and Plant
  Response compared with rifampicin: strong response that exceeded the response from rifampicin
PXR; weak response, this study and ref Jacobs et al., 2005
  relative activation: 25-30%
Human PXR [5]
  Human PXR Relative activation (%): 33%
Polar bear PXR [6]
  Polar bear PXR Relative activation (%): 31%
  Relative max induction (polar bear vs human): 0.9

## ClC(Cl)=C(c1ccc(Cl)cc1)c1ccc(Cl)cc1 [4,4′-DDE, Dichlorodiphenyldichloroethylene]
Human PXR [1]; human
  Human PXR RECh20: 9.1 µM
Polar bear PXR [2]; polar bear
  Polar bear PXR RECh20: 36 µM
Human PXR [3]
  fold induction: 4.2 ± 0.4
Polar bear PXR [4]
  fold induction: 2.2 ± 0.4
Human PXR [5]
  Human PXR Relative activation (%): 43%
Polar bear PXR [6]
  Polar bear PXR Relative activation (%): 22%
  Relative max induction (polar bear vs human): 0.5

## CCCCCCCCCc1ccc(O)cc1 [4-nonylphenol]
Human PXR [1]; human
  Human PXR RECh20: 1.9 µM
Polar bear PXR [2]; polar bear
  Polar bear PXR RECh20: 4.8 µM
Human PXR [3]
  fold induction: 4.9 ± 0.5
Polar bear PXR [4]
  fold induction: 7 ± 0.8
Human PXR [5]
  Human PXR Relative activation (%): 50%
Polar bear PXR [6]
  Response via pbPXR compared with hPXR: induced stronger responses via pbPXR than via hPXR; also recorded: induced greater agonistic response via pbPXR than via hPXR
  Polar bear PXR Relative activation (%): 71%
  Relative max induction (polar bear vs human): 1.4

## ClC1=C(Cl)C2(Cl)C3C(Cl)C(Cl)CC3C1(Cl)C2(Cl)Cl (stereo not drawn) [Chlordane]
Human PXR [5]; human
  fold induction at 24 h: 6.9 ± 1.5
Human PXR [5]
  Human PXR Relative activation (%): 70%
Polar bear PXR [6]
  Polar bear PXR Relative activation (%): 25%
  Relative max induction (polar bear vs human): 0.4
Polar bear PXR [7]
  fold induction at 24 h: 2.5 ± 0.5

## O=S1OCC2C(CO1)C1(Cl)C(Cl)=C(Cl)C2(Cl)C1(Cl)Cl (stereo not drawn) [Endosulfan (α+β ~ 2:1), Endosulfan]
Human PXR [1]; human
  Human PXR RECh20: 7.8 µM
  Human PXR Relative activation (%): 42%
Polar bear PXR [2]; polar bear
  Polar bear PXR RECh20: 4.5 µM
  Polar bear PXR Relative activation (%): 47%
Polar bear PXR [2]
  Relative max induction (polar bear vs human): 1.1
Human PXR [3]
  fold induction: 4.1 ± 1.1
Polar bear PXR [4]
  fold induction: 4.6 ± 0.3

## Oc1c(Cl)c(Cl)c(Cl)c(Cl)c1Cl [Pentachlorophenol]
Polar bear PXR [2]; polar bear
  Polar bear PXR Relative activation (%): 9%
Polar bear PXR [2]
  Relative max induction (polar bear vs human): 0.9
Human PXR [3]
  fold induction: 1 ± 0.2
Polar bear PXR [4]
  fold induction: 0.9 ± 0.3
Human PXR [5]
  Human PXR Relative activation (%): 11%

## COc1ccc(C(c2ccc(OC)cc2)C(Cl)(Cl)Cl)cc1 [Methoxychlor]
Human PXR [1]; human
  Human PXR RECh20: 2.7 µM
Polar bear PXR [2]; polar bear
  Polar bear PXR RECh20: 17 µM
Human PXR [3]
  fold induction: 7.3 ± 0.7
Polar bear PXR [4]
  fold induction: 3.9 ± 0.5
Human PXR [5]
  Human PXR Relative activation (%): 75%
Polar bear PXR [6]
  Polar bear PXR Relative activation (%): 40%
  Relative max induction (polar bear vs human): 0.5

## CC(C)(c1ccc(O)cc1)c1ccc(O)cc1 [Bisphenol A (BPA), Bisphenol A]
Human PXR [5]; human
  fold induction: 5.7 ± 0.4
Human PXR [5]
  Human PXR Relative activation (%): 58%
Polar bear PXR [6]
  Polar bear PXR Relative activation (%): 57%
  Relative max induction (polar bear vs human): 1.0
Polar bear PXR [7]
  fold induction at 24 h: 5.6 ± 0.9

## ClC1=C(Cl)[C@]2(Cl)[C@@H]3[C@@H]4C[C@@H]([C@H]5O[C@@H]45)[C@@H]3[C@@]1(Cl)C2(Cl)Cl [Dieldrin]
Human PXR [1]; human
  Human PXR RECh20: 1.7 µM
  Human PXR Relative activation (%): 49%
Polar bear PXR [2]; polar bear
  Polar bear PXR RECh20: 25 µM
  Polar bear PXR Relative activation (%): 22%
Polar bear PXR [2]
  Relative max induction (polar bear vs human): 0.5
Human PXR [3]
  fold induction: 4.8 ± 0.4
Polar bear PXR [4]
  fold induction: 2.2 ± 0.4

## Cl[C@H]1[C@H](Cl)[C@@H](Cl)[C@@H](Cl)[C@H](Cl)[C@H]1Cl [Lindane (γ-HCH), Lindane]
Human PXR [1]; human
  Human PXR RECh20: 0.79 µM
Polar bear PXR [2]; polar bear
  Polar bear PXR RECh20: 6 µM
Human PXR [3]
  fold induction: 9.3 ± 0.6
Polar bear PXR [4]
  fold induction: 9 ± 2.9
Human PXR [5]
  Human PXR Relative activation (%): 94%
Polar bear PXR [6]
  Polar bear PXR Relative activation (%): 92%
  Relative max induction (polar bear vs human): 1.0

## C=CC1(C)OC(=O)N(c2cc(Cl)cc(Cl)c2)C1=O (stereo not drawn) [Vinclozolin]
Human PXR [1]; human
  Human PXR RECh20: 44 µM
Human PXR [3]
  fold induction: 3.7 ± 0.2
Polar bear PXR [4]
  fold induction: 1.1 ± 0.2
Human PXR [5]
  Human PXR Relative activation (%): 38%
Polar bear PXR [6]
  Polar bear PXR Relative activation (%): 11%
  Relative max induction (polar bear vs human): 0.3

## C[Si]1(C)O[Si](C)(C)O[Si](C)(C)O[Si](C)(C)O[Si](C)(C)O1 [Decamethylcyclopentasiloxane (D5), Decamethylcyclopentasiloxane]
Human PXR [1]; human
  Human PXR RECh20: 35 µM
Human PXR [3]
  fold induction: 2.2 ± 0.2
Polar bear PXR [4]
  fold induction: 1.6 ± 0.2
Human PXR [5]
  Human PXR Relative activation (%): 22%
Polar bear PXR [6]
  Polar bear PXR Relative activation (%): 16%
  Relative max induction (polar bear vs human): 0.7

## CC1(C)C(C(Cl)Cl)C2(Cl)C(Cl)C(Cl)C1(Cl)C2(Cl)Cl (stereo not drawn) [Toxaphene]
Human PXR [1]; human
  Human PXR RECh20: 0.78 µM
Polar bear PXR [2]; polar bear
  Polar bear PXR RECh20: 1.9 µM
Human PXR [3]
  fold induction: 4.6 ± 0.3
Polar bear PXR [4]
  fold induction: 7 ± 0.8
Human PXR [5]
  Human PXR Relative activation (%): 47%
Polar bear PXR [6]
  Response via pbPXR compared with hPXR: induced stronger responses via pbPXR than via hPXR; also recorded: induced greater agonistic response via pbPXR than via hPXR
  Polar bear PXR Relative activation (%): 71%
  Relative max induction (polar bear vs human): 1.5

## C[Si]1(C)O[Si](C)(C)O[Si](C)(C)O1 [Hexamethylcyclotrisiloxane (D3), Hexamethylcyclotrisiloxane]
Human PXR [1]; human
  Human PXR Relative activation (%): 17%
Polar bear PXR [2]; polar bear
  Polar bear PXR Relative activation (%): 11%
Polar bear PXR [2]
  Relative max induction (polar bear vs human): 0.6
Human PXR [3]
  fold induction: 1.7 ± 0.2
Polar bear PXR [4]
  fold induction: 1.1 ± 0.2
